Usually IC50 stands for the concentration needed to halve the response being measured. The low end stands for greater potency, the high end for weaker potency.

The source of these data is patent publication US20070270418A1, “Inhibitors of P38 and Methods of Using the Same” (priority 2003, published 2007).

For the assay, the target named is T1, p38α (Homo sapiens, UniProt Q16539).
T1 construct: p38 MAP Kinases are recombinant human full-length proteins with an amino-terminal GST fusion; GST (N); purchased Upstate (Charlottesville, Va.); host or cells: E. coli
T1 sequence (Q16539 whole entry, the tested form may be a part): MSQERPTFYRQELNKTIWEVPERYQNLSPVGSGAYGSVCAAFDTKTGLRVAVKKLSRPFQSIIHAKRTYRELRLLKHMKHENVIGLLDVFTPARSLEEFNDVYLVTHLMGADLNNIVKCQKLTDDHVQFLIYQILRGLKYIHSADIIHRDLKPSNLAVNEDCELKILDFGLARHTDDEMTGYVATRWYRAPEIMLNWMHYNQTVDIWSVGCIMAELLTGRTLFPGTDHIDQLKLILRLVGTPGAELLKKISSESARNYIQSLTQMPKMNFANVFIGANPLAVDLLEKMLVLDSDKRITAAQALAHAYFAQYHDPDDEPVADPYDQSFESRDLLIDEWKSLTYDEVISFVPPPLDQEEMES
Nature of the assay: p38 MAP Kinase assay, ATF2 phosphorylation (ELISA). Particulars: 40 μM ATP. It is filed as biochemical. An excerpt: Compounds of the invention are screened for the ability to inhibit ATF2 phosphorylation by p38 MAP Kinase in vitro. The ability of compounds to inhibit ATF2 phosphorylation in this in vitro assay is correlated with the inhibition of p38 MAP Kinase and TNFα expression in vivo, and is therefore an indicator of potential in vivo therapeutic activity (Raingeaud, J., et al, J. Biol. Chem., 270: 7420-7426, 1995, Brinkman, M. N., et al, J. Bil. Chem. 274: 30882-30886, 1999 and Fuchs, S. Y. et al, J. Biol. Chem. 275: 12560-12564, 2000).
All kinases and the substrate ATF2 are acquired from Upstate (Charlottesville, Va.). p38 MAP Kinases are recombinant human full-length proteins with an amino-terminal GST fusion, expressed in and purified from E. coli. ATF2 is a GST fusion protein containing amino acids 19-96 of human ATF2 expressed in E. coli. All proteins were aliquoted and stored at −80° C.
p38 MAP Kinase assays are performed using an assay buffer containing 25 mM HEPES, pH 7.5, 10 mM MgCl2, 2 mM DTT, 20 mM β-glycerophosphate, 0.1 mM Na3VO4, 40 μM ATP and 1.25 μM of ATF2, together with 6 ng of p38α protein, 12 ng p38β protein, 1.5 ng p38γ, or 0.4 ng JNK2α2. Compounds are serially diluted in DMSO and 2 μL of test compound at 25× final concentration is used. The vehicle control receives DMSO only. Test compounds are pre-incubated with 20 μl of enzyme in kinase buffer (25 mM HEPES, pH 7.5, 10 mM MgCl2, 2 mM DTT, 20 mM 3-glycerophosphate and 0.1 mM Na3VO4) at room temperature for 15 minutes. […] The reactions are incubated for 30 minutes at 37° C. and terminated by the addition of 18 μl of 200 mM EDTA. An ELISA method is used to measure the phosphorylation of ATF2 at Thr 69. High binding 96-well plates (Corning 3369) are coated with 50 μl of kinase reaction for 1 hour at 37° C. The coated plates are washed with 200 μl washing buffer (25 mM Tris HCl, pH 8.3, 192 mM glycine, 0.1% SDS and 0.05% Tween-20) three times. The plates are then washed three times with SuperBlock in TBS (Pierce, 37535). After blocking, plates are incubated with 50 μl of rabbit anti-phospho-ATF2 antibody (Cell Signaling, 9221 L, 1:500) for 30 minutes at 37° C. Plates are washed three times with washing buffer prior to incubation with 50 μl HRP-conjugated goat anti-rabbit antibody (Cell Signaling, 7074, 1:500) for 30 minutes at 37° C. Plates are then washed three times with washing buffer before incubation with 50 μl of Ultra TMB-ELISA (Pierce, 34028) for 8 minutes at room temperature. Finally, 50 μl of phosphoric acid (1 M) is added to stop reactions and plate absorbance is read at 450 nm on a SpectraMax 250 plate reader.
In general terms: An ELISA detects its analyte on a solid surface through an enzyme-linked reagent.
As for `CC(C)[C@@H](CO)Nc1nccc(-c2c(-c3ccc4c(c3)OCCO4)nc3sccn23)n1` [CCIII], the half-inhibitory concentration (IC50) stood at 1.41 µM.
On to `CC(C)[C@@H](CO)Nc1nccc(-c2c(-c3ccc(C(F)(F)F)cc3)nc3sccn23)n1` [CCII], for which the IC50 worked out at 0.924 µM.
As to `Cc1csc2nc(-c3ccc(F)cc3)c(-c3ccnc(NC(CO)CO)n3)n12` [CCIV], the IC50 turned out to be 10.1 µM.
The result for `OCC(CO)Nc1nccc(-c2c(-c3cccc(F)c3)nc3sccn23)n1` [CCVIII] reads 0.971 µM; that for `OCC(CO)Nc1nccc(-c2c(-c3ccc(F)c(F)c3)nc3sccn23)n1` [CCVI], 0.609 µM; that for `Cc1csc2nc(-c3ccc(F)cc3)c(-c3ccnc(N[C@H](CO)C(C)C)n3)n12` [CCV], 3.19 µM.
`Nc1cc(-c2c(-c3ccc(F)cc3)nc3sccn23)nc(NC2CC2)n1` [CCXXIII] came in with an IC50 of 2.08 µM. This IC50 lies about 1.5-fold lower than the previous one.
On to `Nc1cc(-c2c(-c3ccc(F)cc3)nc3sccn23)nc(NCC2CC2)n1` [CCXXIV], for which inhibition was half-maximal at 1.57 µM (IC50). This IC50 and that of the molecule before are within 1.5-fold of each other.
In turn, `CC(C)(CO)CNc1nc(N)cc(-c2c(-c3ccc(F)cc3)nc3sccn23)n1` [CCXXIX] showed a half-maximal inhibitory concentration (IC50) of 1.03 µM.
The result for `Nc1cc(-c2c(-c3ccc(F)cc3)nc3sccn23)nc(NCCc2ccncc2)n1` [CCXXVIII] reads 0.96 µM; that for `CCCNc1nc(N)cc(-c2c(-c3ccc(F)cc3)nc3sccn23)n1` [CCXXVII], 1.33 µM; that for `CCOCCCNc1nc(N)cc(-c2c(-c3ccc(F)cc3)nc3sccn23)n1` [CCXXVI], 0.766 µM.
Molecule `C[C@H](O)CNc1nc(N)cc(-c2c(-c3ccc(F)cc3)nc3sccn23)n1` [CCXXV] showed an IC50 of 1.05 µM.
`Nc1cc(-c2c(-c3ccc(F)cc3)nc3sccn23)nc(NC[C@H](O)c2ccccc2)n1` [CCXXX] had a concentration for half-maximal inhibition (IC50) of 2.57 µM.
`Cc1ccc(-c2nc3sccn3c2-c2ccnc(NC(CO)CO)n2)cc1` [CCX] gave a half-inhibitory concentration (IC50) of 0.558 µM.
For `O[C@H]1CCN(c2nccc(-c3c(-c4ccc(F)cc4)nc4occn34)n2)C1` [CII], it took 0.927 µM to reach half-maximal inhibition (IC50).
The result for `O[C@@H]1CCN(c2nccc(-c3c(-c4ccc(F)cc4)nc4occn34)n2)C1` [CI] reads 1.42 µM; that for `c1ccc(-c2nc3sccn3c2-c2ccnc(NCc3ccco3)n2)cc1` [CLIII], 0.0156 µM.
Regarding `Fc1ccc(-c2nc3sccn3c2-c2ccnc(NCc3cccs3)n2)cc1` [CLII], the IC50 is 0.00614 µM.
For `CCOC(=O)Cc1csc2nc(-c3ccc(F)cc3)c(-c3ccnc(SC)n3)n12` [CLIV], the IC50 was determined as 1 µM.
Consider `c1ccc(-c2nc3sccn3c2-c2ccnc(NCc3ccccn3)n2)cc1` [CLIX], for which 0.0911 µM corresponded to half-maximal inhibition (IC50).
The result for `OCCCNc1nccc(-c2c(-c3ccccc3)nc3sccn23)n1` [CLVIII] reads 0.0218 µM; that for `c1ccc(-c2nc3sccn3c2-c2ccnc(NC3CC3)n2)cc1` [CLVII], 0.00529 µM; that for `CC(C)(C)OC(=O)CNc1nccc(-c2c(-c3ccc(F)cc3)nc3sccn23)n1` [CLVI], 0.0586 µM.
`CCOC(=O)Cc1csc2nc(-c3ccc(F)cc3)c(-c3ccnc(NCc4ccco4)n3)n12` [CLXIII] gave an IC50 of 1 µM.
The molecule `CCOC(=O)Cc1csc2nc(-c3ccc(F)cc3)c(-c3ccnc(NCC(C)C)n3)n12` [CLXII] displayed a 50% inhibitory concentration (IC50) of 1 µM.
The molecule `CCOC(=O)Cc1csc2nc(-c3ccc(F)cc3)c(-c3ccnc(N4CCCCC4)n3)n12` [CLXIV] registered an IC50 of 1 µM. That is a single-digit micromolar value.
In turn, `COC(=O)C(Cc1ccccc1)Nc1nccc(-c2c(-c3ccc(F)cc3)nc3sccn23)n1` (stereo not shown) [CLXIX] returned an IC50 of 0.267 µM.
`CCOC(=O)Cc1csc2nc(-c3ccc(F)cc3)c(-c3ccnc(NCC4CCCCC4)n3)n12` [CLXI]: half-maximal inhibition (IC50) was put at 1 µM.
Under `c1ccc(-c2nc3sccn3c2-c2ccncn2)cc1` [CLXVIII] stands 1.46 µM; under `CC(C)CNC(=O)Cc1csc2nc(-c3ccc(F)cc3)c(-c3ccnc(NCC(C)C)n3)n12` [CLXVII], 1 µM.
Consider `O=C(Cc1csc2nc(-c3ccc(F)cc3)c(-c3ccnc(NCC4CCCCC4)n3)n12)NCC1CCCCC1` [CLXVI], for which the IC50 was 1 µM.
Turning to `O=C(Cc1csc2nc(-c3ccc(F)cc3)c(-c3ccnc(NCc4ccccc4)n3)n12)NCc1ccccc1` [CLXV], the concentration for half-maximal inhibition (IC50) was found to be 1 µM.
`CC(C)[C@@H](Nc1nccc(-c2c(-c3ccc(F)cc3)nc3sccn23)n1)C(=O)OC(C)(C)C` [CLXXIII]: the half-maximal inhibitory concentration (IC50) is 0.0814 µM.
The result for `CC(C)[C@@H](Nc1nccc(-c2c(-c3ccc(F)cc3)nc3sccn23)n1)C(=O)O` [CLXXIV] reads 0.671 µM.
With `CC(CO)(CO)Nc1nccc(-c2c(-c3ccc(F)cc3)nc3sccn23)n1` [CLXXIX], the half-maximal inhibitory concentration (IC50) came to 0.192 µM.
In turn, `CC(O)CN(CC(C)O)c1nccc(-c2c(-c3ccc(F)cc3)nc3sccn23)n1` (stereo not shown) [CLXXVIII] had an IC50 of 1 µM.
`OCCN(CCO)c1nccc(-c2c(-c3ccc(F)cc3)nc3sccn23)n1` [CLXXVII] returned an IC50 of 0.793 µM.
`CN(CCO)c1nccc(-c2c(-c3ccc(F)cc3)nc3sccn23)n1` [CLXXVI] showed an IC50 of 1 µM.
`COc1cccc(-c2nc3sccn3c2-c2ccnc(SC)n2)c1` [CLXXV] displayed an IC50 of 3.39 µM.
Take `OCCN1CCN(c2nccc(-c3c(-c4ccc(F)cc4)nc4sccn34)n2)CC1` [CLXXXIII]: the IC50 amounted to 1 µM.
Consider `CC(C)C[C@H](CO)Nc1nccc(-c2c(-c3ccc(F)cc3)nc3sccn23)n1` [CLXXXII], for which the midpoint of inhibition, the IC50, lay at 0.347 µM.
The molecule `OC1CCN(c2nccc(-c3c(-c4ccc(F)cc4)nc4sccn34)n2)CC1` [CLXXXIV] showed an IC50 of 0.594 µM. This IC50 lies about 1.7-fold higher than the previous one.
`Cc1cn2c(-c3ccnc(S(C)(=O)=O)n3)c(-c3ccc(F)cc3)nc2s1` [CLXXXVII]: the IC50 turned out to be 1.85 µM.
On to `OCC(CO)Nc1nccc(-c2c(-c3ccc(F)cc3)nc3sccn23)n1` [CLXXXV], for which the half-inhibitory concentration (IC50) was determined as 0.0871 µM.
`CC[C@H](C)C(Nc1nccc(-c2c(-c3ccc(F)cc3)nc3sccn23)n1)C(=O)OC` (stereo partly shown) [CLXX] gave a concentration for half-maximal inhibition (IC50) of 0.0134 µM.
Turning to `CCOC(=O)Cc1csc2nc(-c3ccc(F)cc3)c(-c3ccnc(NCc4ccccc4)n3)n12` [CLX], the IC50 was 1 µM.
With `OCCN(Cc1ccccc1)c1nccc(-c2c(-c3ccc(F)cc3)nc3sccn23)n1` [CXCII], the IC50 came to 0.213 µM.
`OC[C@@H](Nc1nccc(-c2c(-c3ccc(F)cc3)nc3sccn23)n1)[C@H](O)c1ccccc1` [CXCIV] showed a 50% inhibitory concentration (IC50) of 0.565 µM.
Under `COc1cccc(-c2nc3sccn3c2-c2ccnc(NCCOCCO)n2)c1` [CXCIX] stands 0.428 µM; under `CSc1nccc(-c2c(-c3ccc(F)cc3)nc3sc(C)cn23)n1` [CXCI], 0.741 µM; under `COc1cccc(-c2nc3sccn3c2-c2ccnc(NCC(O)CO)n2)c1` (stereo not shown) [CXCVIII], 0.649 µM.
With `COc1cccc(-c2nc3sccn3c2-c2ccnc(NCC(C)O)n2)c1` (stereo not shown) [CXCVII], 0.0612 µM corresponded to half-maximal inhibition (IC50).
In turn, `COc1cccc(-c2nc3sccn3c2-c2ccnc(N[C@H](CO)[C@H](O)c3ccccc3)n2)c1` [CXCVI] had an IC50 of 0.819 µM.
In turn, `COc1cccc(-c2nc3sccn3c2-c2ccnc(NC(C)CO)n2)c1` (stereo not shown) [CXCV] returned a half-maximal inhibitory concentration (IC50) of 0.0447 µM.
The molecule `COc1ccc(-c2nc3sccn3c2-c2ccnc(SC)n2)cc1` [CXC] registered an IC50 of 3.04 µM.
For the molecule `Fc1ccc(-c2nc3sccn3c2-c2ccnc(NCc3ccco3)n2)cc1` [CXLIII], the IC50 is 0.00822 µM.
For the molecule `CC(C)CNc1nccc(-c2c(-c3ccc(F)cc3)nc3sccn23)n1` [CXLII], the IC50 came out at 0.00197 µM.
Under `Fc1ccc(-c2nc3sccn3c2-c2ccnc(NCc3ccccc3)n2)cc1` [CXLI] stands 0.00492 µM; under `Fc1ccc(-c2nc3sccn3c2-c2ccnc(N3CCOCC3)n2)cc1` [CXLVI], 0.129 µM.
As to `COc1ccc(CNc2nccc(-c3c(-c4ccc(F)cc4)nc4sccn34)n2)cc1` [CXLV], inhibition was half-maximal at 0.0655 µM (IC50).
`Nc1nccc(-c2c(-c3ccc(F)cc3)nc3occn23)n1` [CXXIX]: the IC50 worked out at 0.0974 µM.
The result for `COc1ccc(CNc2nccc(-c3c(-c4ccccc4)nc4sccn34)n2)cc1` [CXXXIII] reads 0.0814 µM.
Regarding `c1ccc(-c2nc3sccn3c2-c2ccnc(N3CCOCC3)n2)cc1` [CXXXIV], it took 0.113 µM to reach half-maximal inhibition (IC50).
